Reference: PMC3906536, “The cyclic AMP phosphodiesterase RegA critically regulates encystation in social and pathogenic amoebas^” (Cellular Signalling, 2014)

target: T1, Acas RegA (cAMP phosphodiesterase RegA) (Acanthamoeba castellanii, UniProt L7WMY9); test: inhibition of 3H-cAMP hydrolysis by purified RegA; type: biochemical
T1 construct: 621 aa protein from full cDNA, N-terminal hexahis-tag, expressed in E. coli
T1 sequence (L7WMY9 entry or part of it): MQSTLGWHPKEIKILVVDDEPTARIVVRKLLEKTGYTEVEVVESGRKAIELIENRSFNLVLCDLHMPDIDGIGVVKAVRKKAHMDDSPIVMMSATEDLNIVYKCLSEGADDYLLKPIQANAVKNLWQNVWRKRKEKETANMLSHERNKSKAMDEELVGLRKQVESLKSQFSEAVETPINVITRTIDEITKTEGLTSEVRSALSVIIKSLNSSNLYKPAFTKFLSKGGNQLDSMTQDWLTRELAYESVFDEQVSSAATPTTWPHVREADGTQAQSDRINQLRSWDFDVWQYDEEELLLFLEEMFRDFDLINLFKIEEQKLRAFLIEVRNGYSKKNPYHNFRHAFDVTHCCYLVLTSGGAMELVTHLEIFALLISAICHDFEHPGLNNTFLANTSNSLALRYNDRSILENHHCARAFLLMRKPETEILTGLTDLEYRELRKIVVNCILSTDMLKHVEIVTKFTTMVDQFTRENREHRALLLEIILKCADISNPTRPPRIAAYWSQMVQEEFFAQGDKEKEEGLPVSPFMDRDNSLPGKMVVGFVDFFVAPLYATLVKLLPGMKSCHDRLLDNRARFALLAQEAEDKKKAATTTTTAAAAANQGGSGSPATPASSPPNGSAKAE

Compound	IC50
COc1cc2c(cc1OC)-c1c/c(=N\c3c(C)cc(C)cc3C)n(C)c(=O)n1CC2 [trequinsin]	30 µM
Clc1cccc(Nc2nnc(-c3ccccc3)c3ccccc23)c1 [MY-5445]	400 µM
OCCN(CCO)c1nc(N2CCCCC2)c2nc(N(CCO)CCO)nc(N3CCCCC3)c2n1 [dipyridamole]	12 µM
